| SMILES | melting point |
| --- | --- |
| CCCN(CCC)C(=O)c1cc(C(=O)N[C@@H](Cc2ccccc2)[C@H](O)CNCc2cccc(OC)c2)cc(-c2ccc(OC)cc2)c1.Cl | 205 to 209 °C |
| CCCN(CCC)C(=O)c1cc(C(=O)N[C@@H](Cc2ccccc2)[C@H](O)CNCc2cccc(OC)c2)cc(-c2ccsc2)c1.Cl | 199 to 201 °C |
| CCCN(CCC)C(=O)c1cc(C(=O)N[C@@H](Cc2ccccc2)[C@H](O)CNCc2cccc(OC)c2)cc(-c2ccccc2)c1.Cl | 214 to 219 °C |
| CCCN(CCC)C(=O)c1cc(C(=O)N[C@@H](Cc2cc(F)cc(F)c2)[C@H](O)CNCc2cccc(OC)c2)cc(-c2ccccc2)c1.Cl | 230 to 233 °C |

Reference: patent publication US7498436B2, “Substituted hydroxyethylamines” (Pharmacia & Upjohn Company LLC, priority 2002, dated 2009)
